According to PubChem BioAssay AID330 (DTP/NCI, 2004):
Where “and” joins values, the source holds several entries; their conditions need not be identical. Equal entries are not always repeated. Toxic doses and inconclusive results are not listed.

Test system: P388 leukemia ip, CD2F1 mice, survival T/C
Test: NCI In Vivo Anticancer Drug Screen. Data for tumor model P388 Leukemia (intraperitoneal) in CD2F1 (CDF1) mice
Conditions: endpoint: median survival time, higher = longer survival
Summary of the method: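 Mice carrying the transplanted tumor received test compound or vehicle. Survival was recorded in each group, and the value is the treated-group measurement divided by that of the vehicle-treated control group.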

[1] = dose: 50.0 mg/kg/injection, schedule: Q01DX009 (ip), vehicle: saline with Tween-80
[2] = dose: 100.0 mg/kg/injection, schedule: Q01DX009 (ip), vehicle: saline with Tween-80
[3] = dose: 100.0 mg/kg/injection, schedule: Q04DX003 (ip), vehicle: saline with Tween-80
[4] = dose: 200.0 mg/kg/injection, schedule: Q04DX003 (ip), vehicle: saline with Tween-80
[5] = dose: 200.0 mg/kg/injection, schedule: Q01DX009 (ip), vehicle: saline with Tween-80
[6] = dose: 50.0 mg/kg/injection, schedule: Q01DX005 (ip), vehicle: saline with Tween-80
[7] = dose: 100.0 mg/kg/injection, schedule: Q01DX005 (ip), vehicle: saline with Tween-80
[8] = dose: 200.0 mg/kg/injection, schedule: Q01DX005 (ip), vehicle: saline with Tween-80
[9] = dose: 60.0 mg/kg/injection, schedule: Q01DX005 (ip), vehicle: saline with Tween-80
[10] = dose: 120.0 mg/kg/injection, schedule: Q01DX005 (ip), vehicle: saline with Tween-80

N#C/C=C1/C=CC(O)CC1OC1OC(CO)C(O)C(O)C1O (configuration not stated)
T/C (dose: 3.0 mg/kg/injection, schedule: Q01DX009 (ip), vehicle: saline): 102 % of control
T/C (dose: 6.0 mg/kg/injection, schedule: Q01DX009 (ip), vehicle: saline): 101 % of control
T/C (dose: 12.0 mg/kg/injection, schedule: Q01DX009 (ip), vehicle: saline): 102 % of control
T/C (dose: 24.0 mg/kg/injection, schedule: Q01DX009 (ip), vehicle: saline): 104 % of control

COC1CC(C)C(OC)c2cc(O)cc(c2O)NC(=O)/C(C)=C/C=C\C(C)C(OC(N)=O)/C(C)=C\C(C)C1OC (configuration not stated)
T/C (dose: 0.63 mg/kg/injection, schedule: Q01DX009 (ip), vehicle: saline + alcohol): 116 % of control
T/C (dose: 1.25 mg/kg/injection, schedule: Q01DX009 (sc), vehicle: saline + alcohol): 99 % of control
T/C (dose: 2.5 mg/kg/injection, schedule: Q01DX009 (sc), vehicle: saline + alcohol): 93 % of control
T/C (dose: 5.0 mg/kg/injection, schedule: Q01DX009 (sc), vehicle: saline + Tween-80 + alcohol): 94 % of control
T/C (dose: 5.0 mg/kg/injection, schedule: Q01DX009 (sc), vehicle: saline + alcohol): 98 % of control
T/C (dose: 10.0 mg/kg/injection, schedule: Q01DX009 (sc), vehicle: saline + alcohol): 90 % of control
T/C (dose: 20.0 mg/kg/injection, schedule: Q01DX009 (ip), vehicle: saline + alcohol): 160 % of control
T/C (dose: 20.0 mg/kg/injection, schedule: Q01DX009 (oral), vehicle: saline + Tween-80 + alcohol): 92 % of control
T/C (dose: 40.0 mg/kg/injection, schedule: Q01DX009 (oral), vehicle: saline + Tween-80 + alcohol): 93 % of control
T/C (dose: 80.0 mg/kg/injection, schedule: Q01DX009 (oral), vehicle: saline + Tween-80 + alcohol): 92 % of control
T/C (dose: 160.0 mg/kg/injection, schedule: Q01DX009 (oral), vehicle: saline + Tween-80 + alcohol): 94 % of control
T/C (dose: 240.0 mg/kg/injection, schedule: Q01DX009 (oral), vehicle: saline + Tween-80 + alcohol): 103 % of control

CCc1nc(N)nc(N)c1-c1ccc(N2CCOCC2)c(N=[N+]=[N-])c1
T/C (dose: 6.25 mg/kg/injection, schedule: Q01DX005 (ip), vehicle: Klucel (hydroxypropylcellulose) (HPC)): 101 % of control
T/C (dose: 12.5 mg/kg/injection, schedule: Q01DX005 (ip), vehicle: Klucel (hydroxypropylcellulose) (HPC)): 100 % of control
T/C (dose: 25.0 mg/kg/injection, schedule: Q01DX005 (ip), vehicle: Klucel (hydroxypropylcellulose) (HPC)): 97 % of control

Cc1cc(Cl)cc2c1OCOC2
T/C (dose: 50.0 mg/kg/injection, schedule: Q01DX009 (ip), vehicle: acetone): 101 % of control
T/C (dose: 100.0 mg/kg/injection, schedule: Q01DX009 (ip), vehicle: acetone): 102 % of control

Nc1nc(Cl)c2[nH]cnc2n1
T/C [1]: 108 % of control
T/C (dose: 50.0 mg/kg/injection, schedule: Q04DX003 (ip), vehicle: saline with Tween-80): 95 % of control
T/C [2]: 99 % of control
T/C [3]: 100 % of control
T/C [4]: 100 % of control

CC(c1ccccc1)C1CC1 (configuration not stated)
T/C [1]: 103 % of control
T/C [2]: 107 % of control
T/C [5]: 98 % of control

COc1cc2ccncc2cc1O
T/C (dose: 3.13 mg/kg/injection, schedule: Q01DX009 (ip), vehicle: water): 91 % of control
T/C (dose: 6.25 mg/kg/injection, schedule: Q01DX009 (ip), vehicle: water): 95 % of control
T/C (dose: 12.5 mg/kg/injection, schedule: Q01DX009 (ip), vehicle: water): 100 % of control
T/C (dose: 25.0 mg/kg/injection, schedule: Q01DX009 (ip), vehicle: water): 95 % of control
T/C (dose: 50.0 mg/kg/injection, schedule: Q01DX009 (ip), vehicle: water): 103 % of control

C[C@]12CC[C@@H](OC(=O)N(CCCl)N=O)C[C@@H]1CC[C@@H]1[C@@H]2CC[C@]2(C)C(=O)CC[C@@H]12
T/C (dose: 25.0 mg/kg/injection, schedule: Q01DX005 (ip), vehicle: other): 105 % of control
T/C (dose: 25.0 mg/kg/injection, schedule: Q01DX009 (ip), vehicle: other): 121 % of control
T/C (dose: 31.2 mg/kg/injection, schedule: Q04DX003 (ip), vehicle: saline): 111 % of control
T/C (dose: 50.0 mg/kg/injection, schedule: Q01DX005 (ip), vehicle: other): 122 % of control
T/C (dose: 50.0 mg/kg/injection, schedule: Q01DX009 (ip), vehicle: other): 123 % of control
T/C [1]: 97 % of control
T/C (dose: 62.5 mg/kg/injection, schedule: Q04DX003 (ip), vehicle: saline): 109 % of control
T/C (dose: 100.0 mg/kg/injection, schedule: Q01DX005 (ip), vehicle: other): 114 % of control
T/C [2]: 100 % of control
T/C (dose: 125.0 mg/kg/injection, schedule: Q04DX003 (ip), vehicle: saline): 108 % of control and 112 % of control
T/C [5]: 97 % of control
T/C (dose: 250.0 mg/kg/injection, schedule: Q04DX003 (ip), vehicle: saline): 100 % of control

COc1ccc(N2C(=O)CCSC23C(=O)N(CN2CCOCC2)c2ccccc23)cc1 (configuration not stated)
T/C [6]: 103 % of control
T/C [7]: 106 % of control
T/C [8]: 95 % of control

CN1C(c2ccccc2)=C(C#N)C(=O)CC(c2cccs2)N1C (configuration not stated)
T/C [9]: 96 % of control
T/C [10]: 99 % of control
T/C (dose: 240.0 mg/kg/injection, schedule: Q01DX005 (ip), vehicle: saline with Tween-80): 86 % of control

[Ni]=[Se]
T/C (dose: 60.0 mg/kg/injection, schedule: Q01DX005 (ip), vehicle: saline): 97 % of control
T/C (dose: 120.0 mg/kg/injection, schedule: Q01DX005 (ip), vehicle: saline): 96 % of control
T/C (dose: 240.0 mg/kg/injection, schedule: Q01DX005 (ip), vehicle: saline): 97 % of control

CCCCCCC[CH2][Sn]([S][Sn]([CH2]CCCCCCC)([c]1ccccc1)[c]1ccccc1)([c]1ccccc1)[c]1ccccc1
T/C (dose: 6.25 mg/kg/injection, schedule: Q01DX009 (ip), vehicle: saline): 101 % of control
T/C (dose: 12.5 mg/kg/injection, schedule: Q01DX009 (ip), vehicle: saline): 98 % of control
T/C (dose: 25.0 mg/kg/injection, schedule: Q01DX009 (ip), vehicle: saline): 101 % of control
T/C (dose: 200.0 mg/kg/injection, schedule: Q01DX009 (ip), vehicle: saline): 86 % of control

O=C(OC1CCc2ccccc2C1)c1ccc(N=Nc2ccccc2)cc1 (configuration not stated)
T/C (dose: 15.0 mg/kg/injection, schedule: Q01DX005 (ip), vehicle: saline with Tween-80): 100 % of control
T/C (dose: 30.0 mg/kg/injection, schedule: Q01DX005 (ip), vehicle: saline with Tween-80): 97 % of control
T/C [9]: 91 % of control
T/C [10]: 86 % of control

Nc1ccccc1Nc1ccncc1
T/C (dose: 25.0 mg/kg/injection, schedule: Q01DX009 (ip), vehicle: suspension in saline): 97 % of control
T/C (dose: 50.0 mg/kg/injection, schedule: Q01DX009 (ip), vehicle: suspension in saline): 100 % of control
T/C (dose: 100.0 mg/kg/injection, schedule: Q01DX009 (ip), vehicle: suspension in saline): 97 % of control

c1ccc(Cn2ccnc2CSCCSCc2nccn2Cc2ccccc2)cc1
T/C (dose: 30.0 mg/kg/injection, schedule: Q01DX005 (ip), vehicle: Klucel (hydroxypropylcellulose) (HPC)): 101 % of control
T/C (dose: 60.0 mg/kg/injection, schedule: Q01DX005 (ip), vehicle: Klucel (hydroxypropylcellulose) (HPC)): 99 % of control and 90 % of control
T/C (dose: 120.0 mg/kg/injection, schedule: Q01DX005 (ip), vehicle: Klucel (hydroxypropylcellulose) (HPC)): 99 % of control and 105 % of control
T/C (dose: 240.0 mg/kg/injection, schedule: Q01DX005 (ip), vehicle: Klucel (hydroxypropylcellulose) (HPC)): 97 % of control

CCCCCCC1(/C=C/c2ccc(Cl)c(Cl)c2)OCCCO1
T/C (dose: 50.0 mg/kg/injection, schedule: Q01DX009 (ip), vehicle: saline + alcohol): 98 % of control
T/C (dose: 100.0 mg/kg/injection, schedule: Q01DX009 (ip), vehicle: saline + alcohol): 93 % of control
T/C (dose: 200.0 mg/kg/injection, schedule: Q01DX009 (ip), vehicle: saline + alcohol): 98 % of control

CC12CCC(OC3OC(CO)C(O)C(O)C3O)CC1CCC1C2CCC2(C)C(c3ccc(=O)oc3)CCC12O (configuration not stated)
T/C (dose: 0.35 mg/kg/injection, schedule: Q01DX009 (ip), vehicle: saline): 96 % of control
T/C (dose: 0.7 mg/kg/injection, schedule: Q01DX009 (ip), vehicle: saline): 102 % of control
T/C (dose: 1.4 mg/kg/injection, schedule: Q01DX009 (ip), vehicle: saline): 100 % of control

N#CC(C(=O)CCC(=O)C(C#N)c1c(Cl)cccc1Cl)c1c(Cl)cccc1Cl (configuration not stated)
T/C [6]: 100 % of control
T/C [7]: 98 % of control
T/C [8]: 98 % of control

S=c1ssc2ccccc12
T/C [3]: 100 % of control
T/C [4]: 109 % of control
T/C (dose: 400.0 mg/kg/injection, schedule: Q04DX003 (ip), vehicle: saline with Tween-80): 109 % of control
